According to PMC9636434, “Discovery of small molecule agonists of the Relaxin Family Peptide Receptor 2” (Communications Biology, 2022):
“And” between values parts separate entries of the source, which are not always exact repeats. Equal values may be shown once. Blank lines part the entries; values can stand above or below the compound they belong to.

How the values were obtained:
Type in all cases: cell-based
[1] = target: RXFP2 (Homo sapiens, UniProt Q8WXD0); test: HTRF cAMP assay in HEK-RXFP2 cells (stably transfected; also primary HTS); design: FLAG (N); expressed in transfected cells; settings: Fig. 1a, initial hit and enantiomers
RXFP2, sequence (Q8WXD0 whole entry): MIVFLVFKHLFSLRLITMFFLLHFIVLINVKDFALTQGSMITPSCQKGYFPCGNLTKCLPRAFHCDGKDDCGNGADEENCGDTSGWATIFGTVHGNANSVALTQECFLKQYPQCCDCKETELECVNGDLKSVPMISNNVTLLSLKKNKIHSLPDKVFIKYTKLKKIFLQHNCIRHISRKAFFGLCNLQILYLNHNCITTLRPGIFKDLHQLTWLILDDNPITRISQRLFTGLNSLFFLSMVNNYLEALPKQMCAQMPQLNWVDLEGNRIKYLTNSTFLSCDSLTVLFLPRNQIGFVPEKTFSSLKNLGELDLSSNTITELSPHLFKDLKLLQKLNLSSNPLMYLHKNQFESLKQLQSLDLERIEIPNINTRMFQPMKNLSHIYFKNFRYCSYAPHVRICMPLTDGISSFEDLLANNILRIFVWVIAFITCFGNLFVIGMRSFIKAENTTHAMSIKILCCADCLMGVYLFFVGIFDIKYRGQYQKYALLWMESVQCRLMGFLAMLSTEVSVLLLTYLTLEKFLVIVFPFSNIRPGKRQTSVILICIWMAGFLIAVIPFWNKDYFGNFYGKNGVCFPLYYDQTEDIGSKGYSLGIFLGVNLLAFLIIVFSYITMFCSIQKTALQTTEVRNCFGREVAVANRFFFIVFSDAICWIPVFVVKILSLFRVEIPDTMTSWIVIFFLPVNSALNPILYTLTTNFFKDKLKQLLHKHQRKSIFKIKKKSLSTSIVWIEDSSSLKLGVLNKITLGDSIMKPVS
Protocol: A quantitative high-throughput screening (HTS) of more than 80 K compounds of the NCATS/NIH diversity collection was performed at four concentrations in HEK293T cells stably expressing human RXFP2 to identify candidate agonists. A homogenous time resolved fluorescence (HTRF) assay was used to directly detect compound-induced cAMP accumulation, with forskolin or human recombinant INSL3 serving as positive controls. […] A confirmatory CRE-luciferase cAMP screen was used to eliminate any potential false positives due to assay detection artifacts (Supplementary Fig. 1a).
The cAMP response induced by the compounds was normalized to the cAMP response induced by 100 nM INSL3 as 100% efficacy and the cAMP response induced by DMSO vehicle as 0% efficacy. Emax and EC50 were calculated using four parameter nonlinear fit dose-response stimulation curves. […] Molecular weight (MW).
The HTRF Gs dynamic cAMP assay kit (CisBio, Bedford, MA) was used to measure intracellular cAMP accumulation in HEK293T cells (ATCC, Manassas, VA)[56]. […] The cell stock was verified mycoplasma free and authenticated by ATCC. Transient transfection was accomplished by treating cells in a 6-well plate with a mixture of 2 μg plasmid and 6 μL Lipofectamine 2000 (Invitrogen, Waltham, MA) per manufacturer’s protocol and incubating overnight. For cAMP measurement in 96-well format, HEK293T cells stably transfected with human RXFP2 (HEK-RXFP2), human RXFP1 (HEK-RXFP1), mouse Rxfp1 (HEK-Rxfp1) or transiently transfected with human RXFP1-RXFP2 chimeric receptors were seeded between 7500 and 30,000 cells per well, depending on cell line responsiveness, in serum-free DMEM medium and incubated overnight at 37 °C, 5% CO2. After 18 h, cells were treated with a titration of compound, 2 μM forskolin, or DMSO vehicle. Control wells were also treated with a titration of INSL3 (Phoenix Pharmaceuticals, Burlingame, CA) or human recombinant relaxin 2 (Peprotech, Cranbury, NJ). For the RXFP2 antagonist experiment, cells were co-treated with 0.28 μM compound or 30 nM INSL3 and a titration of the INSL3 B dimer antagonist[38],[39]. For the INSL3 allosteric modulation experiment, cells were co-treated with 0.025, 0.0025, or 0.00025 μM of compound and a titration of INSL3. Cells were incubated for 1 h at 37 °C, 5% CO2, and then kit cAMP-d2 and anti-cAMP antibody were added per manufacturer protocol. Plates were incubated for 1 h at room temperature and the signal was read on a CLARIOstar plate reader (BMG Labtech, Ortenberg, Germany) at 665 and 620 nm emission wavelengths.

[2] = target: T1, human RXFP3 (Homo sapiens, UniProt Q9NSD7); test: GloSensor cAMP assay in RXFP3 transiently transfected HEK293T cells; settings: for RLU (cAMP, raw): RXFP3, 0.1 µM isoproterenol, replicates (1)-(4)
T1 construct: host or cells: HEK293T (transient)
T1 sequence (Q9NSD7 1-469): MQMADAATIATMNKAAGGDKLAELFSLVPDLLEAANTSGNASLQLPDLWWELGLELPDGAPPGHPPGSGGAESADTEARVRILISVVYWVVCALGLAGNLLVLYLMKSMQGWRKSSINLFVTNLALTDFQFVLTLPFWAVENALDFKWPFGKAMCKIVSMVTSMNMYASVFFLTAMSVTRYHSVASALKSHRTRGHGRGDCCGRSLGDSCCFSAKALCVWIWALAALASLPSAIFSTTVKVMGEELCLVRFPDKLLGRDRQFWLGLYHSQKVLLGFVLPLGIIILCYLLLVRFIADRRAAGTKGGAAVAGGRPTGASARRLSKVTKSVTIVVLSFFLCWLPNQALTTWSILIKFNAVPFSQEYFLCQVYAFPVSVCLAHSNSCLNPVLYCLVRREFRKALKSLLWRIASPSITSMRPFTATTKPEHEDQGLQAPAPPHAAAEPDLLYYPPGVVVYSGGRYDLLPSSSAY

[3] = target: T2, human RXFP4 (Homo sapiens, UniProt Q8TDU9); test: GloSensor cAMP assay in RXFP4 transiently transfected HEK293T cells; settings: for RLU (cAMP, raw): RXFP4, 0.1 µM isoproterenol, replicates (1)-(4)
T2 construct: host or cells: HEK293T (transient)
T2 sequence (Q8TDU9 whole entry): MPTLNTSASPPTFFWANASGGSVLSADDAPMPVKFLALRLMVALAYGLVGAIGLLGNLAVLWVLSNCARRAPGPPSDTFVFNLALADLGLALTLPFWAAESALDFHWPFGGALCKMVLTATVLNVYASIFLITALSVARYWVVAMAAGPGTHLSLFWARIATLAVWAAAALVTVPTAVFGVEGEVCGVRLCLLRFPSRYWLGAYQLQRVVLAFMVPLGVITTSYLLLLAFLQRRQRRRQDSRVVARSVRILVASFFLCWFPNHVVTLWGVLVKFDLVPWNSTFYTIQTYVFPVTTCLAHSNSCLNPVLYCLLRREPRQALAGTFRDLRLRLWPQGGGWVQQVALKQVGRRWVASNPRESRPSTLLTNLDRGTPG

[4] = cAMP induced by 0.1 µM isoproterenol

- RXFP2 agonist activity in SAR scheme (Active / Inactive) [1]: Active
Compound: O=C1Nc2ccc(-c3cccc(C(F)(F)F)c3)cc2C(=O)N2CCN(C(=O)COc3ccccc3)CC12 (centres unmarked) [compound 8685]

- RXFP2 agonist activity in SAR scheme (Active / Inactive) [1]: Inactive
Compound: O=C1Nc2ccc(-c3cccc(C(F)(F)F)c3)cc2C(=O)N2CCN(C(=O)COc3ccccc3)C[C@H]12 [compound 9940]

- RXFP2 agonist activity in SAR scheme (Active / Inactive) [1]: Active
Compound: O=C1Nc2ccc(-c3cccc(C(F)(F)F)c3)cc2C(=O)N2CCN(C(=O)COc3ccccc3)C[C@@H]12 [compound 9941]

- activation of RXFP3 (cAMP inhibition) [2, 4]: cAMP inhibition was induced
- activation of RXFP4 (cAMP inhibition) [3, 4]: cAMP inhibition was induced
Compound: Relaxin 3 [reference compound]
- RLU (cAMP, raw) ([2]; Log [M] -6.52): 1192.27 RLU and 862.59 RLU and 949.473 RLU and 1055.99 RLU
- RLU (cAMP, raw) ([2]; Log [M] -7): 1047.66 RLU and 816.174 RLU and 793.561 RLU and 818.554 RLU
- RLU (cAMP, raw) ([2]; Log [M] -7.52): 956.019 RLU and 1042.31 RLU and 964.35 RLU and 906.626 RLU
- RLU (cAMP, raw) ([2]; Log [M] -8): 852.474 RLU and 715.01 RLU and 962.564 RLU and 860.21 RLU
- RLU (cAMP, raw) ([2]; Log [M] -8.52): 886.989 RLU and 845.333 RLU and 966.73 RLU and 845.928 RLU
- RLU (cAMP, raw) ([2]; Log [M] -9): 816.769 RLU and 926.264 RLU and 1003.03 RLU and 782.254 RLU
- RLU (cAMP, raw) ([2]; Log [M] -9.52): 998.865 RLU and 951.853 RLU and 1093.48 RLU and 960.779 RLU
- RLU (cAMP, raw) ([2]; Log [M] -10): 1300.57 RLU and 1261.3 RLU and 1319.62 RLU and 1454.11 RLU
- RLU (cAMP, raw) ([2]; Log [M] -10.52): 1602.51 RLU and 1583.63 RLU and 1833.56 RLU and 1666.69 RLU
- RLU (cAMP, raw) ([2]; Log [M] -11): 1772.4 RLU and 1591.93 RLU and 1761.07 RLU and 2392.31 RLU
- RLU (cAMP, raw) ([2]; Log [M] -11.52): 1947.57 RLU and 1934.74 RLU and 2203.54 RLU and 1701.42 RLU
- RLU (cAMP, raw) ([2]; Log [M] -12): 1918.12 RLU and 1736.15 RLU and 2144.65 RLU and 2026.1 RLU
- RLU (cAMP, raw) ([3]; Log [M] -6.48): 1291.4 RLU and 1273.39 RLU and 1346.81 RLU and 1344.73 RLU
- RLU (cAMP, raw) ([3]; Log [M] -7): 1098.17 RLU and 1299.02 RLU and 1204.83 RLU and 1290.02 RLU
- RLU (cAMP, raw) ([3]; Log [M] -7.48): 1677.86 RLU and 1738.12 RLU and 1419.53 RLU and 1594.75 RLU
- RLU (cAMP, raw) ([3]; Log [M] -8): 1308.71 RLU and 1324.64 RLU and 953.421 RLU and 1409.83 RLU
- RLU (cAMP, raw) ([3]; Log [M] -8.48): 1529.65 RLU and 1656.39 RLU and 1650.16 RLU and 1971.52 RLU
- RLU (cAMP, raw) ([3]; Log [M] -9): 1954.9 RLU and 1829.54 RLU and 1896.03 RLU and 2124.58 RLU
- RLU (cAMP, raw) ([3]; Log [M] -9.48): 2502.74 RLU and 2781.85 RLU and 2785.32 RLU and 3087.98 RLU
- RLU (cAMP, raw) ([3]; Log [M] -10): 2794.2 RLU and 2602.12 RLU and 2925.02 RLU and 3021.06 RLU
- RLU (cAMP, raw) ([3]; Log [M] -10.48): 3431.68 RLU and 3104.99 RLU and 3415.8 RLU and 3651.73 RLU
- RLU (cAMP, raw) ([3]; Log [M] -11): 3106.51 RLU and 3181.37 RLU and 2993.83 RLU and 2959.05 RLU
- RLU (cAMP, raw) ([3]; Log [M] -11.48): 3672.91 RLU and 3117.85 RLU and 3373.45 RLU and 3185.15 RLU
- RLU (cAMP, raw) ([3]; Log [M] -12): 3273.63 RLU and 3139.78 RLU and 2622.54 RLU and 2913.68 RLU
